{"source": "paper PMC8231654", "about": "“Evaluation of Cytotoxic and Mutagenic Effects of the Synthetic Cathinones Mexedrone, α-PVP and α-PHP” (International Journal of Molecular Sciences, 2021)", "key": {"[1]": {"details": "cited from earlier work; for mutagenic potential: psychoactive phenethylamines; for mutagenic capacity in terms of increasing the frequency of MNi: synthetic cannabinoids, first study of 2020"}, "TK6 cells [2]": {"tested_on": "TK6 cells", "assay": "In vitro micronucleus test by flow cytometry, with S9 mix", "format": "cell-based, human", "details": "3 h + S9 mix, 23 h recovery, 75 and 100 µM", "experimental": "(§1) The analysis of the MNi frequency was performed using an automated protocol published by Lenzi et al..\n(§2) A total of 10,000 nuclei, derived from viable and proliferating cells, and the corresponding number of MNi were acquired and analyzed by Guava Incyte software. The discrimination between nuclei and MNi occurs on the basis of the different size and intensity of green fluorescence.\n(§3) The MNi frequency (number of MNi/10,000 nuclei) recorded in treated cultures were normalized on those recorded in the concurrent negative control cultures, accounted equal to 1 and expressed as MNi frequency fold increase.\nThe exogenous metabolic activation system employed is a co-factor-supplemented post-mitochondrial fraction (S9 mix) prepared from the livers of rats treated with enzyme-inducing agent Aroclor 1254. The final concentration of S9 in the culture medium was 0.75%.\n(§4) We used the clastogen MMC and the aneuploidogen VINB as positive controls in absence of S9 mix, while CP, a clastogen agent requiring metabolic activation, in presence of S9 mix."}, "TK6 cells [3]": {"tested_on": "TK6 cells", "assay": "Apoptosis analysis (Guava Nexin assay)", "format": "cell-based, human", "details": "26 h, all selected concentrations", "experimental": "The percentage of apoptotic cells was evaluated by the Guava Nexin Assay according to the procedure by Lenzi et al. and Cocchi et al..\nThe reagent contains the 7-aminoactinomycin D (7- AAD), a cells non-permeant dye that allows the discrimination between live and dead cells, and the Annexin-V-PE that allows the identification of apoptotic cells by binding to the phosphatidylserine on the cell surface.\n100 μL of reagent was added to 100 μL of cell suspension (~1 × 10^5 cells) and incubated for 20 min at RT. Then, a total of 2000 events were acquired and analyzed by Guava Nexin software.\nThe apoptotic cell percentages recorded in the cultures treated with synthetic cathinones different concentrations were normalized on those recorded in the untreated control cultures, accounted equal to 1 and expressed as apoptotic fold increase."}, "DAT": {"tested_on": "DAT", "set-up": "method as in PMID 27524685", "details": "monoamine uptake, rats' brain synaptosomes; cited from earlier work"}, "TK6 cells [4]": {"tested_on": "TK6 cells", "assay": "Cytotoxicity analysis (Guava ViaCount, cell viability)", "details": "26 h, 25-100 µM"}, "TK6 cells [5]": {"tested_on": "TK6 cells", "assay": "Cytostasis analysis (Relative Population Doubling)", "format": "cell-based, human", "details": "26 h; for Relative Population Doubling (RPD): mean ± SEM; for Cytostatic effect / RPD versus OECD threshold (55 ± 5%): all concentrations up to 100 µM", "experimental": "In parallel, always using the Guava ViaCount Reagent, the number of cells seeded at time 0 and the one measured at the end of the treatment time were used to check the correct replication and to calculate the Population Doublings (PD) values. Subsequently, the PD obtained in the control cultures was compared to that measured in the treated cultures obtaining the Relative Population Doublings (RPD). PD and RPD were calculated with the following formulas:(1) PD=logpost−initial cell number/initial cell number÷log2 (2) RPD=PD in treated cultures/PD in control cutures x 100\nSimilarly, to cytotoxicity, the cytostasis was checked, in order to verify that cell proliferation respected the threshold established by OECD guideline (55 ± 5%)."}, "SERT [6]": {"tested_on": "SERT", "set-up": "method as in PMID 27524685", "details": "rats' brain synaptosomes; read-out: releasing activity on SERT EC50; cited from earlier work"}, "NET": {"tested_on": "NET", "set-up": "method as in PMID 27524685", "details": "monoamine uptake, rats' brain synaptosomes; cited from earlier work"}, "SERT [7]": {"tested_on": "SERT", "set-up": "method as in PMID 27524685", "details": "monoamine uptake, rats' brain synaptosomes; cited from earlier work"}, "TK6 cells [8]": {"tested_on": "TK6 cells", "assay": "In vitro micronucleus test by flow cytometry, without S9 mix", "format": "cell-based, human", "details": "26 h, 75 and 100 µM", "experimental": "as §1, §2, §3, §4"}, "mice": {"tested_on": "mice", "details": "in mice; cited from earlier work"}, "rats": {"tested_on": "rats", "details": "in rats; cited from earlier work"}, "[9]": {"tested_on": "serotonin transporter (SERT)", "set-up": "method as in PMID 25624004, PMID 27799294", "details": "human embryonic kidney 293 cells; cited from earlier work"}, "[10]": {"tested_on": "dopamine (DAT), norepinephrine (NET), and serotonin (SERT) transporters", "set-up": "method as in PMID 25624004, PMID 27799294", "details": "human embryonic kidney 293 cells; cited from earlier work"}, "[11]": {"set-up": "method as in PMID 26505776, PMID 29963212, PMID 33379373", "details": "human urine of a drug abuser; cited from earlier work"}, "[12]": {"tested_on": "norepinephrine transporter (NET)", "set-up": "method as in PMID 25624004, PMID 27799294", "details": "reuptake inhibition, human embryonic kidney 293 cells; cited from earlier work"}, "[13]": {"tested_on": "dopamine transporter (DAT)", "set-up": "method as in PMID 25624004, PMID 27799294", "details": "reuptake inhibition, human embryonic kidney 293 cells; cited from earlier work"}, "C2C12 myoblasts": {"tested_on": "C2C12 myoblasts", "set-up": "method as in PMID 30925718", "details": "24 h, concentrations 10 to 20 times higher than in this paper; cited from earlier work"}, "[14]": {"set-up": "method as in PMID 23797910, PMID 26014283, PMID 27142261", "details": "in vitro studies; cited from earlier work"}}, "note": "Read-outs that look alike come from different tables or passages of the source.", "data": [{"compound": "COc1cc(CCN)c(OC)cc1Br", "note": "[2C-B]", "values": [{"measurement": "mutagenic potential", "setting": "[1]", "value": "proved to be mutagen"}]}, {"compound": "COc1ccc(OC)c(CCN)c1", "note": "[2C-H]", "values": [{"measurement": "mutagenic potential", "setting": "[1]", "value": "proved to be mutagen"}]}, {"compound": "COc1cc(CCN)c(OC)cc1I", "note": "[2C-I]", "values": [{"measurement": "mutagenic potential", "setting": "[1]", "value": "proved to be mutagen"}]}, {"compound": "COc1cc(CCNCc2ccccc2OC)c(OC)cc1Br", "note": "[25B-NBOMe]", "values": [{"measurement": "mutagenic potential", "setting": "[1]", "value": "proved to be mutagen"}]}, {"compound": "CCCCCn1nc(C(=O)OC23CC4CC(CC(C4)C2)C3)c2ccccc21", "note": "[APINAC]", "values": [{"measurement": "mutagenic capacity in terms of increasing the frequency of MNi", "setting": "[1]", "value": "mutagenic capacity"}]}, {"compound": "O=C(Oc1cccc2cccnc12)c1cn(CC2CCCCC2)c2ccccc12", "note": "[BB-22]", "values": [{"measurement": "mutagenic capacity in terms of increasing the frequency of MNi", "setting": "[1]", "value": "mutagenic capacity"}]}, {"compound": "CNC(COC)C(=O)c1ccc(C)cc1", "note": "(stereo not shown) [Mexedrone, 3-methoxy-2-(methylamino)-1-(4-methylphenyl)propan-1-one]", "values": [{"measurement": "MNi frequency fold increase versus negative control", "setting": "TK6 cells [2]", "value": "statistically significant increase at both concentrations tested"}, {"measurement": "Apoptosis fold increase versus negative control", "setting": "TK6 cells [3]", "value": "never reached a doubling"}, {"measurement": "IC50", "setting": "DAT", "value": "~6800", "unit": "nM"}, {"measurement": "Cell viability / cytotoxic effect versus negative control and OECD threshold (55 ± 5%)", "setting": "TK6 cells [4]", "value": "do not induce any cytotoxic or cytostatic effects"}, {"measurement": "Relative Population Doubling (RPD)", "setting": "TK6 cells [5]; 25 µM", "value": "97.0% ± 3.2"}, {"measurement": "Relative Population Doubling (RPD)", "setting": "TK6 cells [5]; 35 µM", "value": "92.0% ± 4.2"}, {"measurement": "Relative Population Doubling (RPD)", "setting": "TK6 cells [5]; 50 µM", "value": "88.4% ± 7.9"}, {"measurement": "Relative Population Doubling (RPD)", "setting": "TK6 cells [5]; 75 µM", "value": "95.2% ± 3.5"}, {"measurement": "Relative Population Doubling (RPD)", "setting": "TK6 cells [5]; 100 µM", "value": "90.1% ± 3.6"}, {"measurement": "Cytostatic effect / RPD versus OECD threshold (55 ± 5%)", "setting": "TK6 cells [5]", "value": "do not induce any cytotoxic or cytostatic effects"}, {"measurement": "EC50", "setting": "SERT [6]", "value": 2500, "unit": "nM"}, {"measurement": "IC50", "setting": "NET", "value": "~8800", "unit": "nM"}, {"measurement": "IC50", "setting": "SERT [7]", "value": "~5200", "unit": "nM"}, {"measurement": "MNi frequency fold increase versus negative control", "setting": "TK6 cells [8]", "value": "significant increase of the MNi frequency at both the concentrations tested"}]}, {"compound": "O=C(NC12CC3CC(CC(C3)C1)C2)c1cn(CCCCCF)c2ccccc12", "note": "[STS-135]", "values": [{"measurement": "mutagenic capacity in terms of increasing the frequency of MNi", "setting": "[1]", "value": "mutagenic capacity"}]}, {"compound": "C[C@H](N)C(=O)c1ccccc1", "note": "[cathinone]", "values": [{"measurement": "mutagenicity", "setting": "mice", "value": "mutagenicity demonstrated"}]}, {"compound": "CNC(C)C(=O)c1ccc(C)cc1", "note": "(stereo not shown) [mephedrone, 4-methyl-N-methyl cathinone]", "values": [{"measurement": "mutagenicity", "setting": "rats", "value": "mutagenicity demonstrated"}]}, {"compound": "CCCCC(C(=O)c1ccccc1)N1CCCC1", "note": "(stereo not drawn) [α-PHP, alpha-pyrrolidinohexanophenone]", "values": [{"measurement": "MNi frequency fold increase versus negative control", "setting": "TK6 cells [2]", "value": "statistically significant increase was observed only at the highest concentration tested"}, {"measurement": "Apoptosis fold increase versus negative control", "setting": "TK6 cells [3]", "value": "never reached a doubling"}, {"measurement": "IC50", "setting": "[9]", "value": "> 10000", "unit": "nM"}, {"measurement": "Cell viability / cytotoxic effect versus negative control and OECD threshold (55 ± 5%)", "setting": "TK6 cells [4]", "value": "do not induce any cytotoxic or cytostatic effects"}, {"measurement": "Relative Population Doubling (RPD)", "setting": "TK6 cells [5]; 25 µM", "value": "88.3% ± 1.3"}, {"measurement": "Relative Population Doubling (RPD)", "setting": "TK6 cells [5]; 35 µM", "value": "94.4% ± 1.7"}, {"measurement": "Relative Population Doubling (RPD)", "setting": "TK6 cells [5]; 50 µM", "value": "96.8% ± 3.2"}, {"measurement": "Relative Population Doubling (RPD)", "setting": "TK6 cells [5]; 75 µM", "value": "85.2% ± 3.5"}, {"measurement": "Relative Population Doubling (RPD)", "setting": "TK6 cells [5]; 100 µM", "value": "85.9% ± 5.6"}, {"measurement": "Cytostatic effect / RPD versus OECD threshold (55 ± 5%)", "setting": "TK6 cells [5]", "value": "do not induce any cytotoxic or cytostatic effects"}, {"measurement": "neurotransmitters release", "setting": "[10]", "value": "do not enhance neurotransmitters release"}, {"measurement": "number of glucuronide conjugates identified", "setting": "[11]", "value": 9}, {"measurement": "number of phase I metabolites identified", "setting": "[11]", "value": 19}, {"measurement": "MNi frequency fold increase versus negative control", "setting": "TK6 cells [8]", "value": "no statistically significant increase"}, {"measurement": "IC50", "setting": "[12]", "value": 40, "unit": "nM"}, {"measurement": "IC50", "setting": "[13]", "value": 20, "unit": "nM"}]}, {"compound": "CCCC(C(=O)c1ccccc1)N1CCCC1", "note": "(stereo not drawn) [α-PVP, alpha-pyrrolidinopentiophenone]", "values": [{"measurement": "MNi frequency fold increase versus negative control", "setting": "TK6 cells [2]", "value": "significant increase in MNi frequency at both concentrations tested"}, {"measurement": "Apoptosis fold increase versus negative control", "setting": "TK6 cells [3]", "value": "never reached a doubling"}, {"measurement": "IC50", "setting": "[9]", "value": "> 10000", "unit": "nM"}, {"measurement": "Cell viability / cytotoxic effect versus negative control and OECD threshold (55 ± 5%)", "setting": "TK6 cells [4]", "value": "do not induce any cytotoxic or cytostatic effects"}, {"measurement": "Relative Population Doubling (RPD)", "setting": "TK6 cells [5]; 25 µM", "value": "91.5% ± 5.9"}, {"measurement": "Relative Population Doubling (RPD)", "setting": "TK6 cells [5]; 35 µM", "value": "88.4% ± 6.8"}, {"measurement": "Relative Population Doubling (RPD)", "setting": "TK6 cells [5]; 50 µM", "value": "88.7% ± 7.1"}, {"measurement": "Relative Population Doubling (RPD)", "setting": "TK6 cells [5]; 75 µM", "value": "89.9% ± 4.6"}, {"measurement": "Relative Population Doubling (RPD)", "setting": "TK6 cells [5]; 100 µM", "value": "87.6% ± 6.3"}, {"measurement": "Cytostatic effect / RPD versus OECD threshold (55 ± 5%)", "setting": "TK6 cells [5]", "value": "do not induce any cytotoxic or cytostatic effects"}, {"measurement": "neurotransmitters release", "setting": "[10]", "value": "do not enhance neurotransmitters release"}, {"measurement": "mitochondrial superoxide production", "setting": "C2C12 myoblasts", "value": "statistically significant increase in mitochondrial superoxide production"}, {"measurement": "MNi frequency fold increase versus negative control", "setting": "TK6 cells [8]", "value": "no statistically significant increase"}, {"measurement": "number of phase I metabolites identified", "setting": "[14]", "value": 6}, {"measurement": "IC50", "setting": "[12]", "value": 20, "unit": "nM"}, {"measurement": "IC50", "setting": "[13]", "value": 40, "unit": "nM"}]}]}
